Data reported in US5534533A, “Carboxylate derivatives exhibiting phospholipase A2 inhibitory activity” (Shionogi & Co., Ltd., priority 1993, dated 1996).

Assays:
[1] = molecular target: T1, intracellular PLA2 (cytosolic PLA2, cPLA2) (Homo sapiens, UniProt P47712); test: Intracellular PLA2 (cPLA2) inhibitory activity (14C-arachidonyl phosphatidylcholine substrate); type: biochemical; settings: 2 μM radiolabelled phosphatidylcholine, 1 μM dioleoylglycerol, 1 mM CaCl2, pH 7.4; read-out: c-PLA2 Inhibition IC50
T1 sequence (P47712 1-749): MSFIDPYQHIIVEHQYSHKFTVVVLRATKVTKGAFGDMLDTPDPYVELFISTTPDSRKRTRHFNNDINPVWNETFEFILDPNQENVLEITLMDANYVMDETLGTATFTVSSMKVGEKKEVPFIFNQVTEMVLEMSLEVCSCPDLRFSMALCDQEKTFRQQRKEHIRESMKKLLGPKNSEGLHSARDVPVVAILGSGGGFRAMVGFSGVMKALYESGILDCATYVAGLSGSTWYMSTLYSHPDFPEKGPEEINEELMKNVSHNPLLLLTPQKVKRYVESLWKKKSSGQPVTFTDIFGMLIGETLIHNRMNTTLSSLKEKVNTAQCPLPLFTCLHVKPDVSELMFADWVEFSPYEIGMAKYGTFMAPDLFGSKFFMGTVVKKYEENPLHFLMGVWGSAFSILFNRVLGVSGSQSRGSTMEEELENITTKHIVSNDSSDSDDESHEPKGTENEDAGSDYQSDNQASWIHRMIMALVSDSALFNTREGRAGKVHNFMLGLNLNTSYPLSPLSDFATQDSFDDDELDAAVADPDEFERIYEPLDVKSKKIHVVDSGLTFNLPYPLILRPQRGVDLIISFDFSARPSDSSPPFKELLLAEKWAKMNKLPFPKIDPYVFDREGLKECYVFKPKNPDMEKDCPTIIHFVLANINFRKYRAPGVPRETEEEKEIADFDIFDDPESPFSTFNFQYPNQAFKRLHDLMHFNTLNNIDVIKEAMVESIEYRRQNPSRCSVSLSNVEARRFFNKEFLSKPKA
In short: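 Sonicated vesicles carrying 2 μM 1-palmitoyl-2-[14C]arachidonyl-phosphatidylcholine with 1 μM dioleoylglycerol served as substrate. Buffer: 50 mM Hepes pH 7.4, 150 mM NaCl, 1 mM CaCl2, 2 mM DTT, 0.1 mg/ml BSA. IC50 values were derived.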

[2] = molecular target: T2, Human secretory PLA2 (Homo sapiens, UniProt P14555); test: Secretory PLA2 inhibitory activity (diheptanoyl thio PC substrate, absorbance at 405 nm); type: biochemical; settings: diheptanoyl thio PC 1 mM, Triton X100 0.3 mM, pH 7.3, CaCl2 10 mM, 30 minutes, read-out: s-PLA2 Inhibition IC50
T2 sequence (P14555 21-144): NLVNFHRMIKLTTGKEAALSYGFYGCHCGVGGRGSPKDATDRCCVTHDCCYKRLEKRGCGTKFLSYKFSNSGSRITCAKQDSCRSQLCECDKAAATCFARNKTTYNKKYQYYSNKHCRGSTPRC
In short: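 Diheptanoyl thio-PC (1 mM) with Triton X100 (0.3 mM) and DTNB (125 μM) in Tris 25 mM pH 7.3, CaCl2 10 mM, KCl 100 mM, BSA 1.0 mg/ml. Absorbance change at 405 nm read at 30 min; percent inhibition corrected for no-enzyme blanks, IC50 from log-concentration plot.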

[3] = test system: adjuvant arthritis; test: Adjuvant arthritis in rats (Mycobacterium butyricum), foot edema volume; type: in vivo, Crj/LEW male rat; settings: rat, 10 mg/kg P.O. daily, 17-18 days after adjuvant; *P < 0.05 (Examples 1, 69), **P < 0.01 (Examples 2, 23, 25) to vehicle control; Example 29 unmarked
Experimental: Adjuvant arthritis was induced by subcutaneously administering a suspension of 0.5 mg of Mycobacterium butyricum (Difco) in 0.05 ml of liquid paraffin to the pad of left foot of Crj/LEW male rat of 7-8 weeks age weighing 150-170 g. After administering the adjuvant, the volume of edema of both feet was daily measured by a plethysmometer. The adjuvant had been administered, and since the following day, a suspension of the test compound in 0.6% arabic gum was orally administered every day, and 17-18 days after administering the adjuvant, the volume of edema of the foot and that of foot to which no adjuvant had been administered were compared with each other. Volume of the edema in control group was defined as 100%, which value was obtained by subtracting the volume of foot of normal rat (1.2 ml) from the volume measured, and inhibitory percent obtained by using the inhibitor was defined as inhibitory rate. Using the inhibitory rate, effectiveness was determined by Student's-t assay.

SMILES | IC50 [1] | IC50 [2] | Inhibition % (To Nontreated Foot), edema volume [3]
COc1c(C)c(OC(=O)c2c(C)c(C)c(OCCCOc3ccc(C(F)(F)F)cc3)c(C)c2OC)c(C)c(C)c1C(=O)O [Example 1, 4-[4-[3-(4-Trifluoromethylphenoxy)propyloxy]-2-methoxy-3,5,6-trimethylphenylcarboxy]-2-methoxy-3,5,6-trimethylbenzoic acid] | 20 µM | 21 µM | 43.4%
COc1c(C)c(OC(=O)c2c(C)c(C)c(OCCCOc3ccc(F)cc3)c(C)c2OC)c(C)c(C)c1C(=O)O [Example 2, 4-[4-[3-(4-Fluorophenoxy)propyloxy]-2-methoxy-3,5,6-trimethylphenylcarboxy]-2-methoxy-3,5,6-trimethylbenzoic acid] | 9 µM | 18 µM | 52.3%
COc1c(C)c(OC(=O)c2c(C)c(C)c(OCCCOc3ccc(Cl)cc3)c(C)c2OC)c(C)c(C)c1C(=O)O [Example 23, 4-{4-[3-(4-Chlorophenoxy)propoxy]-2-methoxy-3,5,6-trimethylbenzoyloxy}-2-methoxy-3,5,6-trimethylbenzoic Acid] | 4 µM | 9.4 µM | 66.0%
COc1c(C)c(OC(=O)c2c(C)c(C)c(OCCCOc3ccc(Br)cc3)c(C)c2OC)c(C)c(C)c1C(=O)O [Example 25, 4-{4-[3-(4-Bromophenoxy)propoxy]-2-methoxy-3,5,6-trimethylbenzoyloxy}-2-methoxy-3,5,6-trimethylbenzoic Acid] | 13 µM | 4.6 µM | 66.0%
COc1c(C)c(OC(=O)c2c(C)c(C)c(OCCCOc3ccc(C)cc3)c(C)c2OC)c(C)c(C)c1C(=O)O [Example 29, 4-{4-[3-(4-Methylphenoxy)propoxy]-2-methoxy-3,5,6-trimethylbenzoyloxy}-2-methoxy-3,5,6-trimethylbenzoic Acid] | 8.5 µM | 12 µM | 33.1%
COc1c(C)c(OC(=O)c2c(C)c(C)c(OCCCN3CCN(c4ccc(F)cc4)CC3)c(C)c2OC)c(C)c(C)c1C(=O)O [Example 69, 4-{4-[3-(4-(4-Fluorophenyl)piperazin-1-yl)propoxy]-2-methoxy-3,5,6-trimethylbenzoyloxy}-2-methoxy-3,5,6-trimethylbenzoic Acid] | 36 µM | 12 µM | 24.6%
